Test results published in PMC11859264, “Discovery of a Novel Multitarget Analgesic Through an In Vivo-Guided Approach” (Pharmaceuticals, 2025).

Experiments:
[1] = target: T1, Transporter, Dopamine (DAT) (Homo sapiens, UniProt Q01959); assay: Radioligand binding, [125I] RTI-55, Eurofins; settings: DAT
T1 construct: host or cells: CHO-S cells

Dopamine D2L = target: T2, Dopamine D2L (Homo sapiens, UniProt P14416); assay: Radioligand binding, [3H] Spiperone, Eurofins; settings: Dopamine D2L
T2 construct: host or cells: CHO cells

CYP3A4 = CYP3A4 (Homo sapiens, UniProt P08684); assay: Cytochrome P450 (CYP) inhibition assay; settings: microsomes, pH 7.4
CYP2C9 = CYP2C9 (Homo sapiens, UniProt P11712); assay: Cytochrome P450 (CYP) inhibition assay; settings: microsomes, pH 7.4
CYP2C19 = CYP2C19 (Homo sapiens, UniProt P33261); assay: Cytochrome P450 (CYP) inhibition assay; settings: microsomes, pH 7.4
Serotonin 5-HT2A = Serotonin 5-HT2A (Homo sapiens, UniProt P28223); assay: Radioligand binding, [3H] Ketanserin, Eurofins; settings: Serotonin 5-HT2A
Adrenergic α2A = target: T3, Adrenergic α2A (Homo sapiens, UniProt P08913); assay: Radioligand binding, [3H] Rauwolscine, Eurofins; settings: Adrenergic α2A
T3 sequence (P08913 1-465): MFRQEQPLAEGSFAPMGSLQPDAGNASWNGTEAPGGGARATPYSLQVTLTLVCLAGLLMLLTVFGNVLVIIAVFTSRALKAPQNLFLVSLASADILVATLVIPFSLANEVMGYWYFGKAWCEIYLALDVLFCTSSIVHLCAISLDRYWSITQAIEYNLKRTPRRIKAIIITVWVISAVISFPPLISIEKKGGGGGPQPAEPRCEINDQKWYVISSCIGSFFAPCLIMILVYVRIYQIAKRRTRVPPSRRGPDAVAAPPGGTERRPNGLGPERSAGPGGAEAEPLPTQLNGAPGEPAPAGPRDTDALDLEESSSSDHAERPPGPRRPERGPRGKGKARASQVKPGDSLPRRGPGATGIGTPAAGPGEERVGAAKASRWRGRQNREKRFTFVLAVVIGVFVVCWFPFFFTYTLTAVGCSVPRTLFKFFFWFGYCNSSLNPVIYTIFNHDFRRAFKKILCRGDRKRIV

formalin model = assay: Formalin test in mice (primary in vivo screening and ED50); set-up: species or system ICR male mice; settings: mice, 5 mg/kg intraperitoneal, second phase
Procedure: For primary screening, the synthesized compounds were administered to mice via intraperitoneal injection at a dose of 5 mg/kg using the formalin model. The percentage inhibition in the second phase, relative to the vehicle control (DMSO/cremophor EL/distilled water = 10:10:80), was calculated.
Each compound was assessed using four doses (0.1, 1, 5, and 10 mg/kg) by intraperitoneal injection.
ICR male mice weighing 23–25 g was purchased from Samtako Korea (Osan, Republic of Korea). ICR mice were housed four per cage in a room with 12 h light–dark cycles. The temperature and relative humidity of the room were maintained at 22 ± 2 °C and 50 ± 5%, respectively. Food and water were available ad libitum. The procedures for animal testing were approved by Medifron Animal Care and Use Committees (Approval number; Medifron 2019-9). Efforts were made to minimize animal suffering and to reduce the number of animals used.
Mice were randomly assigned to five groups (four per group) and single-dose drugs were administered by intraperitoneal injection. The formalin-induced licking paw test was modified from the method described by Dubuisson and Dennis. Each mouse was acclimated to an acrylic observation chamber for at least 30 min before the injection of formalin. Twenty microliters of 2% formalin were injected subcutaneously into the right side of the hind paw. Each mouse was then placed in an individual clear plastic observational chamber (15 × 15 × 15 cm, volume = […] or 3.375 L), and the pain response was recorded for a period of 30 min. The summation of time (in seconds) spent in licking and biting responses of the injected paw during each 5 min block was measured as an indicator of the pain response. The first period (early phase) was recorded 0–5 min after the injection of formalin, and the second period (late phase) was recorded 20–30 min after the injection. The test compound was administered intraperitoneally 30 min before the formalin injection at […]: 0.1, 1, 5, and 10 mg/kg. The vehicle was DMSO/Cremophor EL/distilled water (10/10/80). The data were expressed as the mean ± standard error of the mean (SEM). Statistical analysis was assessed by one-way analysis of variance (ANOVA) with Bonferroni’s post hoc test. Statistical significance was set at p-value < 0.05, with values of p <0.001 considered highly significant.

CYP2C19, sequence (P33261 whole entry): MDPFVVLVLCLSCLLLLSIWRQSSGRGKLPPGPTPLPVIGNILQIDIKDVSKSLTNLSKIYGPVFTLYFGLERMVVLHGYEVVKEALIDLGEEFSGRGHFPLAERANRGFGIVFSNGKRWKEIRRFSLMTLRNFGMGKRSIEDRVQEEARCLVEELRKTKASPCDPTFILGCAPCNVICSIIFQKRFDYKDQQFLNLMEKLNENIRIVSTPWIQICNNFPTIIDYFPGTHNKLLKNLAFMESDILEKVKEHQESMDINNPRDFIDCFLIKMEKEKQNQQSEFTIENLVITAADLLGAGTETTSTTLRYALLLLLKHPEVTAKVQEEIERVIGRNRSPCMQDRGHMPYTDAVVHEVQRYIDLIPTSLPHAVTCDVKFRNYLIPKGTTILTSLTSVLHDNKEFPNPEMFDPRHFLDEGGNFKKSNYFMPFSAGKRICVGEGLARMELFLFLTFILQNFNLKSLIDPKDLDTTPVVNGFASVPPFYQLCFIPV
T1 sequence (Q01959 whole entry): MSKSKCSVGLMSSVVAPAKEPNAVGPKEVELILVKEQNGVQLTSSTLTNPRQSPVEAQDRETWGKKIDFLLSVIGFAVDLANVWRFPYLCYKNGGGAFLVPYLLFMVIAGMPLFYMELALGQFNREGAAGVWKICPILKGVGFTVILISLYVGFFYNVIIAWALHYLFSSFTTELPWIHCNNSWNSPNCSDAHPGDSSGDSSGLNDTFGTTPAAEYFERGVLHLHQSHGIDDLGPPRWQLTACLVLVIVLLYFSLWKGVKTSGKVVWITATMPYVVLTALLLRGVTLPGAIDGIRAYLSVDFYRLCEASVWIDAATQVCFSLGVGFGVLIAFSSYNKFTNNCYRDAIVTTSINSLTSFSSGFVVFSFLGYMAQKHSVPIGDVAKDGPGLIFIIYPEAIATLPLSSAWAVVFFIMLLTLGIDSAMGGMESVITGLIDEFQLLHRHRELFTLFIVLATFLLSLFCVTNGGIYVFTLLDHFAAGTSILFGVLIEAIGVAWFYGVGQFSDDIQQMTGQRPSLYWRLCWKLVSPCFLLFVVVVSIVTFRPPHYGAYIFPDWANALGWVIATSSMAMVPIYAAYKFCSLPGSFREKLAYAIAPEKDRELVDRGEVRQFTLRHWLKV
CYP3A4, sequence (P08684 whole entry): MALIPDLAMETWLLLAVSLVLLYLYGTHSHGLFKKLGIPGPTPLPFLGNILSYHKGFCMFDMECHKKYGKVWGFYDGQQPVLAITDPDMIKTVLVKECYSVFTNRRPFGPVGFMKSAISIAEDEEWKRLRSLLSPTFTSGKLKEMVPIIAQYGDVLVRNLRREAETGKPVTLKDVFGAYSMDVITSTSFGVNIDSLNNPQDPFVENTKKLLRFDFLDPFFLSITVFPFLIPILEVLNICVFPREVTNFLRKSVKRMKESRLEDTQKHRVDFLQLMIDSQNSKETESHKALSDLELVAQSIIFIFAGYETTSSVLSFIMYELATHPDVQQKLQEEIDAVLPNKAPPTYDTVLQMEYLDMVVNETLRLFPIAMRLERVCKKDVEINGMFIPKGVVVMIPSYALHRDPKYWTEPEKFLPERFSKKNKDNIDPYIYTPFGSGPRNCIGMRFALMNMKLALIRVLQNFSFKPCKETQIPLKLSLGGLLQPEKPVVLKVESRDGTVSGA
CYP2C9, sequence (P11712 whole entry): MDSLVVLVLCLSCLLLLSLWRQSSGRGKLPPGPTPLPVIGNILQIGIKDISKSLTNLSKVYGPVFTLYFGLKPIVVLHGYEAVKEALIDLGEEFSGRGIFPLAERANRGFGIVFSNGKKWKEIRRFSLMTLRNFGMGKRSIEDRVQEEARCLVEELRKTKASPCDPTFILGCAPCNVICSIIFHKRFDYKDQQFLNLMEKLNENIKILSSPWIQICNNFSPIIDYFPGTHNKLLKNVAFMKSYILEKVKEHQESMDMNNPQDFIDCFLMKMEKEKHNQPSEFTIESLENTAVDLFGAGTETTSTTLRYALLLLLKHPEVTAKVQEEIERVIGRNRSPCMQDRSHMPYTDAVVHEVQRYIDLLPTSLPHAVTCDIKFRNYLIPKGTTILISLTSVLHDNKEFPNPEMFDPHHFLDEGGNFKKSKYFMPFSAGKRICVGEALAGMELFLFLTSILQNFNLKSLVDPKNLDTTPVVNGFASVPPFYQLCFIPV
Serotonin 5-HT2A, sequence (P28223 whole entry): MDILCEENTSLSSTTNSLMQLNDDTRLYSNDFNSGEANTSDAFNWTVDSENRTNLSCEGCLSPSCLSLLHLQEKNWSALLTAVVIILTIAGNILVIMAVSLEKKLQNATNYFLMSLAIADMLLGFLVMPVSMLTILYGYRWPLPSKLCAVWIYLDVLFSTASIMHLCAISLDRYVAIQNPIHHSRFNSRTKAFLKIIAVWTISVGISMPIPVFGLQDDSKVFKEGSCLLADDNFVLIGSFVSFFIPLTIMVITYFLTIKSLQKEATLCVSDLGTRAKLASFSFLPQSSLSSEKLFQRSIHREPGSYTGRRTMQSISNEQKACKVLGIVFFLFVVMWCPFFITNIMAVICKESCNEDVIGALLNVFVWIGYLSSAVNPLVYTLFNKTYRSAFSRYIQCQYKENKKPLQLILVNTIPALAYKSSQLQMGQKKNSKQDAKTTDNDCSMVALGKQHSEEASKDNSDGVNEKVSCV
T2 sequence (P14416 whole entry): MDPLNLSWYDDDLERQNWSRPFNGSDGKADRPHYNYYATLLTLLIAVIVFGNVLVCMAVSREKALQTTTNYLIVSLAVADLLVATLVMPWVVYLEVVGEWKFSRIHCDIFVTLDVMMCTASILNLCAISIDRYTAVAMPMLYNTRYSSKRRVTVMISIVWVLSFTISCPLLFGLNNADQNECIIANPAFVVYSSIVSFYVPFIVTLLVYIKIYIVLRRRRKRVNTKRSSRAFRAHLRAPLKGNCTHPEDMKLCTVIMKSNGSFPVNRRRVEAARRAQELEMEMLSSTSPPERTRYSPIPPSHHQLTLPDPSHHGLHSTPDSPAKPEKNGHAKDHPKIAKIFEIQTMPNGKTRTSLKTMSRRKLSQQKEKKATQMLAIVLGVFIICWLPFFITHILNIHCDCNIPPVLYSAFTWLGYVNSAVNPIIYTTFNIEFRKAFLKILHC

## Fc1ccc(C(OCCN2CCN(CCCc3ccccc3)CC2)c2ccc(F)cc2)cc1 [Vanoxerine, reference compound]
[1]
  nH (Hill coefficient): 1.01

## O=C(CCCN1CCC2(CC1)C(=O)NCN2c1ccccc1)c1ccc(F)cc1 [Spiperone, reference compound]
Dopamine D2L
  nH (Hill coefficient): 0.71

## CC(=O)N1CCN(c2ccc(OCC3COC(Cn4ccnc4)(c4ccc(Cl)cc4Cl)O3)cc2)CC1 (stereo not drawn) [Ketoconazole]
CYP3A4
  inhibition at 15 min, 0.1 µM: 68%
CYP2C9
  inhibition at 15 min, 0.1 µM: 3.2%
CYP2C19
  inhibition at 15 min, 0.1 µM: 0%

## O=C(c1ccc(F)cc1)C1CCN(CCn2c(=O)[nH]c3ccccc3c2=O)CC1 [Ketanserin, reference compound]
Serotonin 5-HT2A
  nH (Hill coefficient): 0.99

## COC(=O)[C@@H]1[C@H]2C[C@H]3c4[nH]c5ccccc5c4CCN3C[C@@H]2CC[C@@H]1O [Yohimbine, reference compound]
Adrenergic α2A
  nH (Hill coefficient): 0.88

## N#Cc1ccc2[nH]cc(C(=O)NCCN3CCN(c4ccc(Cl)cc4)CC3)c2c1 [Compound 24, N-(2-(4-(4-Chlorophenyl)piperazin-1-yl)ethyl)-5-cyano-1H-indole-3-carboxamide]
Formalin model
  % Inhibition in the second phase of the formalin model relative to vehicle control: 1.6%

## N#Cc1ccc2[nH]cc(C(=O)NCCN3CCN(c4ccc5oc(C(N)=O)cc5c4)CC3)c2c1 [Compound 30, N-(2-(4-(2-Carbamoylbenzofuran-5-yl)piperazin-1-yl)ethyl)-5-cyano-1H-indole-3-carboxamide]
Formalin model
  % Inhibition in the second phase of the formalin model relative to vehicle control: 23.8%
